Reference: US8114843B2, “Photoreactive regulator of protein function and methods of use thereof” (The Regents of the University of California, priority 2005, dated 2012)

Assays:
Assay in all cases: PAL photoswitching, whole-cell patch clamp in HEK cells
Type in all cases: cell-based
Kv3.3 = molecular target: T1, Kv3.3 (Homo sapiens, UniProt Q14003)
T1 construct: expressed in transfected cells; host or cells: HEK cells
T1 sequence (Q14003 1-757): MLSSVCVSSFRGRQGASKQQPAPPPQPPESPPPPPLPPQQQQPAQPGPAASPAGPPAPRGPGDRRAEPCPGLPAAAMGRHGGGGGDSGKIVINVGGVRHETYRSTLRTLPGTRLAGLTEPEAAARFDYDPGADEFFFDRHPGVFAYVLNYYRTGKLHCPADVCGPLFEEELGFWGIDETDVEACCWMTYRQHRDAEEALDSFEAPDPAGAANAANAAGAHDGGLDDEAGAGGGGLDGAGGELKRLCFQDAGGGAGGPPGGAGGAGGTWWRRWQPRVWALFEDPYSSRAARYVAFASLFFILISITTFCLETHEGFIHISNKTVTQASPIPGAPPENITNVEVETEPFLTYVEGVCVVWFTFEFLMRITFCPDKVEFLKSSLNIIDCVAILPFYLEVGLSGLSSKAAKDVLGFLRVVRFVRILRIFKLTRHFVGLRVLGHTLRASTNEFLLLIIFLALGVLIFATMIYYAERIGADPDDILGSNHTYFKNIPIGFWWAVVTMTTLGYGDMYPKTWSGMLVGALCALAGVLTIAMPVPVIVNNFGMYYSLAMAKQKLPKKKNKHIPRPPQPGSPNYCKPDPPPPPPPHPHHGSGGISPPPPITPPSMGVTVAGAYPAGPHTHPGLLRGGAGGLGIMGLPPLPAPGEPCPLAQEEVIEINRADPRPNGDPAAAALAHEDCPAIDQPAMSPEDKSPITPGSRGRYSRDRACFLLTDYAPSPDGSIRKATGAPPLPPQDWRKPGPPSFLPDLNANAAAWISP
Experimental: (§1) Cell culture and transfection. HEK293 cells were grown in DMEM containing 5% fetal bovine serum, at 37° C., 7% CO2. For electrophysiology, cells were plated at 12×10^5 cells/cm^2 on poly-L-lysine coated coverslips and transfected using the calcium phosphate method. Recordings were performed 24-36 hours after transfection.
(§2) PAL attachment. HEK293 and hippocampal cells were rinsed in extracellular solution containing in mM: 138 NaCl, 1.5 KCl, 1.2 MgCl2, 2.5 CaCl2, 5 HEPES, 10 glucose and incubated at 37° C. in the dark with 200-250 μM PAL for 15 minutes. For slices, AAQ was diluted to 200 μM in aCSF and treatment was performed in the dark at room temperature for 10 minutes.
(§3) Electrophysiological recording. Recordings from HEK293 and hippocampal neurons were made in the whole-cell patch clamp configuration using a PC-501A amplifier (Warner Instruments). Pulse protocols and measurements were carried out with pCLAMP and a Digidata 1322 interface (Axon Instruments). For voltage-clamp experiment, cells were held at −70 mV. Data was recorded at 20 kHz and filtered at 2 kHz. Recording pipettes with 2.5-4 MΩ resistance were filled with intracellular solution containing in mM: 10 NaCl, 135 K-gluconate, 10 HEPES, 2 MgCl2, 2 MgATP, 1 EGTA, pH 7.4.
(§4) Illumination was provided using a xenon lamp (Sutter Instruments) with narrow band pass filters (380 BP10 for UV and 500 BP5 for visible light respectively). Excitation filters were changed using a lambda 10-2 filter changer (Sutter Instruments) controlled via pCLAMP software.
(§5) Percent photoswitching was defined as the difference between current in UV and visible light divided by current in UV. All data shown in bar graphs are averages±standard error of the mean.

Kv3.1 = molecular target: T2, Kv3.1 (Homo sapiens, UniProt P48547)
T2 construct: expressed in transfected cells; host or cells: HEK cells
T2 sequence (P48547 1-511): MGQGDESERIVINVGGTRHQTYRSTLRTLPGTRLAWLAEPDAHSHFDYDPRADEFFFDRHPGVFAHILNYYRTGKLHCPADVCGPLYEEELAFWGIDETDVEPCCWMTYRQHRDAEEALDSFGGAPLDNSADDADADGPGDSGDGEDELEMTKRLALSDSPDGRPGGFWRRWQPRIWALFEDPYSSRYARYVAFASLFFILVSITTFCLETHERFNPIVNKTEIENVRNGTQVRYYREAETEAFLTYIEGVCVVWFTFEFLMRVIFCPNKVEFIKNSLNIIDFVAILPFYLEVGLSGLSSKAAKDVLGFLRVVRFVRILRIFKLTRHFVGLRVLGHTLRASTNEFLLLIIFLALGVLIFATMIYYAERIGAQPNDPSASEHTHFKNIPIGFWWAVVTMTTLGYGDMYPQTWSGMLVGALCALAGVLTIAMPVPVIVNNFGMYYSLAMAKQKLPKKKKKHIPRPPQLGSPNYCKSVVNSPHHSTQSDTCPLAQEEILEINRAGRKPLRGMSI
Experimental: as §1, §2, §3, §4, §5

Kv4.2 = molecular target: T3, Kv4.2 (Homo sapiens, UniProt Q9NZV8); conditions: n=6
T3 construct: expressed in transfected cells; host or cells: HEK cells
T3 sequence (Q9NZV8 1-630): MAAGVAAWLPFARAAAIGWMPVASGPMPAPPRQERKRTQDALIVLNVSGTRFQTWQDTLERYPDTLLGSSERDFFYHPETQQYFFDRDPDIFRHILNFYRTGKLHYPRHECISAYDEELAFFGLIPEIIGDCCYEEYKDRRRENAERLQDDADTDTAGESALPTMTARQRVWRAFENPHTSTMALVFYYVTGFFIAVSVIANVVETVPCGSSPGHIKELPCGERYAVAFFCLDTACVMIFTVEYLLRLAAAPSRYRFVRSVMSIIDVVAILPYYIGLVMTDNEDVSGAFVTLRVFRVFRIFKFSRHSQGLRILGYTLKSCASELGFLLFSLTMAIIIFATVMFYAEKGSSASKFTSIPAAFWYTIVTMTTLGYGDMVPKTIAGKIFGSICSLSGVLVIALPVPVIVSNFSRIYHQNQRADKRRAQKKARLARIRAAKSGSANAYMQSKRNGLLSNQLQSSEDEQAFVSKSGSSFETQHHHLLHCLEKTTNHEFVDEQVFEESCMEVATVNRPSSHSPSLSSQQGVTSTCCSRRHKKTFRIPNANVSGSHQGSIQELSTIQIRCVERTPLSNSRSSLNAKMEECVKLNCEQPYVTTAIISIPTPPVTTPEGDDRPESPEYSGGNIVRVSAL
Experimental: as §1, §2, §3, §4, §5

Kv1.4 = molecular target: T4, Kv1.4 (Homo sapiens, UniProt P22459); conditions: n=6
T4 construct: expressed in transfected cells; host or cells: HEK cells
T4 sequence (P22459 whole entry): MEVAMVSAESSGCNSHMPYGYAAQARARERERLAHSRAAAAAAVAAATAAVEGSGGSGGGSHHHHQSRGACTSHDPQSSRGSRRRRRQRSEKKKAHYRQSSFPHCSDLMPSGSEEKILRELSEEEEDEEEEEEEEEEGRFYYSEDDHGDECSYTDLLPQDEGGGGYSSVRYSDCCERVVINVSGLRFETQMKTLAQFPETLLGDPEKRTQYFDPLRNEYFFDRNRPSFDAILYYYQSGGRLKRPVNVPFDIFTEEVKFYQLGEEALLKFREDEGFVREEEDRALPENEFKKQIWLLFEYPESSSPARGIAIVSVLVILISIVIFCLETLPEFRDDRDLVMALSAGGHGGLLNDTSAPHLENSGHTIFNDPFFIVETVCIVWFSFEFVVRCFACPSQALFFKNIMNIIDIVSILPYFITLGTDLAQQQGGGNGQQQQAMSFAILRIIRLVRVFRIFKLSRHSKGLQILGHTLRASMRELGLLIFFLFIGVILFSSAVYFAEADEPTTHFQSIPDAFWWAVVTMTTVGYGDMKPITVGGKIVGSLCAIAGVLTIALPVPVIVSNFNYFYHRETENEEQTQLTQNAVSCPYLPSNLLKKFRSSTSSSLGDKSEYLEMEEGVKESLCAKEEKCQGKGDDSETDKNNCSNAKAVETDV
Experimental: as §1, §2, §3, §4, §5

Compound: C=CC(=O)Nc1ccc(/N=N/c2ccc(NC(=O)C[N+](CC)(CC)CC)cc2)cc1 [AAQ]
- light-sensitivity imparted on channel (Kv3.3): imparted light-sensitivity
- light-sensitivity imparted on channel (Kv3.1): imparted light-sensitivity
- current turned on and off by light (Kv4.2): ~80%
- current turned on and off by light (Kv1.4): ~80%
